The text below walks through data of patent publication US4594357A, “Depot antiinflammatory agents” (Troponwerke GmbH & Co., priority 1983, dated 1986).

Data set [1] concerns oedema of the rat paw induced by carrageenan. In words: carrageenan-induced rat paw oedema (oedema inhibition). As to conditions: for % Inhibition after depot acid: i.m. 15 mg/kg as an oily solution; for Oedema inhibition: rat. Format: in vivo, rat (male, strain Bor: WISW (SPF-Cpb)). How it is done:
The oedema-inhibiting and analgesic action of the test substances following intramuscular administration of an appropriate depot formulation was determined with the aid of oedema of the rat paw induced by carrageenan or by means of the Randall-Selitto test [Arch. int. Pharmacodyn. 111, 409 (1957)].
The experiments were carried out on male rats [strain: Bor: WISW (SPF-Cpb), weight about 200 g]. A depot product was administered once intramuscularly to the animals and the antiinflammatory action on the following days was tested by inducing carrageenan oedema. In each case three groups or 5 animals each were investigated per day, the first group consisting of 5 untreated animals, the 2nd group of 5 animals treated only with solvent (for example viscoleo) and the 3rd group of 5 animals treated with depot product (for example 2-(2-hydroxyethoxy)-ethyl-N(α,α,α-trifluoro-m-tolyl)anthranilate (formula 11) in viscoleo).
The paw volumes were measured by the method of F. Kemper and G. Ameln [Z. ges. exp. Med. 131, 407 (1959)], the difference between the paw volumes 5 hours after oedema provocation and the normal paw volume giving the oedema volume. The analgesic action was determined via pressure pain [Randall-Selitto, see above].
The inhibition of the carrageenan oedema following intramuscular administration of 2-(2-hydroxyethoxy)-ethyl N-(α,α,α-trifluoro-m-tolyl)-anthranilate (formula 11) in viscoleo after various doses in a constant administration volume of 0.03 ml (rat) is as follows: […]
Background: In the carrageenan paw model, swelling and tenderness develop within hours.

A short description of data set [2]: biological half-life from the inflamed tissue by gas chromatography. Format: in vivo. Conditions: rat, read-out: biological half-life (HL) from the inflamed tissue (converted). How it is done: (§1) It was possible to determine the biological half-life (HL) of the compound 11 in rats from the inflamed tissue by means of gas chromatography [H.-D. Dell, J. Fielder, H. Jacobi and J. Kolle, Arzneim.-Forsch./Drug.Res 31, 17-21 (1981)]. The HL from the tissue is about 8.5 hours. In contrast, an HL of 1.29 days is determined for elimination from the tissue (site of administration) following intramuscular administration of 11 in oily solution.

Data set [3] is described as follows: half-life for elimination from the tissue (site of administration). Format: in vivo. As to conditions: tissue at administration site, im; rat, i.m. administration in oily solution; read-out: HL for elimination from the tissue (site of administration) (converted). The method, then:
as §1

Data set [4] relates to oedema of the rat paw induced by carrageenan. As to conditions: carrageenan model, cited from earlier work.

In the case of `O=C(O)c1ccccc1Nc1cccc(C(F)(F)F)c1` [formula 1, N--(α,α,α-Trifluoro-m-tolyl)-anthranilic acid], the “% Inhibition after depot acid” value in data set [1] (1 day after injection) is listed as 53.8%; in data set [1] (2 days after injection) it was 46.5%; in data set [1] (3 days after injection), 34.3%; in data set [1] (4 days after injection) it was 37.1%; in data set [1] (5 days after injection), 26.8%.
Regarding `O=C(O)c1cccnc1Nc1cccc(C(F)(F)F)c1` [formula 6, 2-(α,α,α-Trifluoro-m-toluidino)-nicotinic acid], the “% Inhibition after depot acid” value was 57.0% in data set [1] (1 day after injection), 35.2% in data set [1] (2 days after injection), 35.5% in data set [1] (3 days after injection) and 11.5% in data set [1] (4 days after injection).
In the case of `O=C(OCCOCCO)c1ccccc1Nc1cccc(C(F)(F)F)c1` [formula 11, 2-(2-hydroxyethoxy)-ethyl N-(α,α,α-trifluoro-m-tolyl)-anthranilate], the Oedema inhibition in data set [1] (10.5 mg/kg, single i.m., in viscoleo, 1 day after injection) stood at 64.0%; in data set [1] (10.5 mg/kg, single i.m., in viscoleo, 2 days after injection), 61.1%; in data set [1] (10.5 mg/kg, single i.m., in viscoleo, 3 days after injection), 36.6%; in data set [1] (10.5 mg/kg, single i.m., in viscoleo, 4 days after injection) it was 41.6%; in data set [1] (15 mg/kg, single i.m., in viscoleo, 1 day after injection), 77.6%; in data set [1] (15 mg/kg, single i.m., in viscoleo, 2 days after injection), 72.2%. Besides, the Oedema inhibition in data set [1] (15 mg/kg, single i.m., in viscoleo, 3 days after injection) is 55.5%; in data set [1] (15 mg/kg, single i.m., in viscoleo, 4 days after injection) it was 51.3%; in data set [1] (19.5 mg/kg, single i.m., in viscoleo, 1 day after injection), 77.6%; in data set [1] (19.5 mg/kg, single i.m., in viscoleo, 2 days after injection), 81.3%; in data set [1] (19.5 mg/kg, single i.m., in viscoleo, 3 days after injection), 61.6%; in data set [1] (19.5 mg/kg, single i.m., in viscoleo, 4 days after injection) it was 52.1%. For the same molecule, the half-life is around 8.5 h in data set [2] and 31 h in data set [3]. Also, in data set [4] (about 24 hours), the “duration of oedema inhibition after peroral administration” value is “corresponds to the control value after about 24 hours”. Besides, the “oedema inhibition after peroral administration” value in data set [4] was “powerful oedema inhibition”.
As for `CCCCOC(=O)c1ccccc1Nc1cccc(C(F)(F)F)c1` [formula 13, butyl N-(α,α,α-trifluoro-m-tolyl)-anthranilate], the Oedema inhibition in data set [1] (formula 13 in viscoleo, single i.m. 15 mg/kg, 1 day after administration) was determined as 53.8%; in data set [1] (formula 13 in viscoleo, single i.m. 15 mg/kg, 2 days after administration), 46.5%; in data set [1] (formula 13 in viscoleo, single i.m. 15 mg/kg, 3 days after administration), 34.3%; in data set [1] (formula 13 in viscoleo, single i.m. 15 mg/kg, 4 days after administration), 37.1%; in data set [1] (formula 13 in viscoleo, single i.m. 15 mg/kg, 5 days after administration), 28.8%.
